Results on 24 molecules are retold here after patent publication US9556150B2, “Inhibitors of bruton's tyrosine kinase” (Hoffmann-La Roche Inc., priority 2013, dated 2017).

Molecules are shown by their SMILES. pIC50: −log10 of the molar value. Structures can show the parent of a compound that is named as a salt.

In this test the target is Bruton's Tyrosine Kinase (BTK), inactivated state (Homo sapiens (Human), UniProt Q06187). In words: Bruton's Tyrosine Kinase (BTK) Inhibition TR-FRET (Time Resolved FRET) competition assay. The format is binding. The settings on record: TR-FRET competition with Kinase Tracer 178, BTK-Eu complex, 18-24 h at 14° C. The protocol: Bruton's Tyrosine Kinase (BTK) Inhibition TR-FRET (Time Resolved FRET) Assay
Bruton's Tyrosine Kinase (BTK), inactivated state, sequence (Q06187 whole entry): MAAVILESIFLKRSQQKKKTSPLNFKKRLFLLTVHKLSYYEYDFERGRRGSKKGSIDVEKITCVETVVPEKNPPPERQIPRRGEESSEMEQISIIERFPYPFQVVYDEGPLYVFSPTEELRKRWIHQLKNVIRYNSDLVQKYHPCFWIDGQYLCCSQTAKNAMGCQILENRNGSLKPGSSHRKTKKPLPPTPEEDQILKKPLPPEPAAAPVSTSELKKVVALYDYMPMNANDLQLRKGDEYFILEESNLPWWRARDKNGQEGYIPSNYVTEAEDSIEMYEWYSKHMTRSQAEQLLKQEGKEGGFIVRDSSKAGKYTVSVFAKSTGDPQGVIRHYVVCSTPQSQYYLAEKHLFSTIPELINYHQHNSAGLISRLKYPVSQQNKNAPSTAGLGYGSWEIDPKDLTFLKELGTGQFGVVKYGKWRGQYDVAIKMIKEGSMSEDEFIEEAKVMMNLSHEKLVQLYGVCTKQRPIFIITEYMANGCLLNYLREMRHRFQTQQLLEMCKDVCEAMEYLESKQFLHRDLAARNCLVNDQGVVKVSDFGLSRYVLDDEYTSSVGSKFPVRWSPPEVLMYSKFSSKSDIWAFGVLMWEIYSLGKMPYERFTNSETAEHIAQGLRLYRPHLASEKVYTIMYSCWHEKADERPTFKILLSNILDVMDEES
This BTK competition assay measures compound potency (IC50) for the inactivated state of Bruton's Tyrosine Kinase using FRET (Förster/Fluorescence Resonance Energy Transfer) technology. The BTK-Eu complex was incubated on ice one hour prior to use at a starting concentration of 50 nM BTK-Bioease™: 10 nM Eu-streptavidin (Perkin-Elmer Catalog#AD0062). The assay buffer consisted of 20 mM HEPES (pH 7.15), 0.1 mM DTT, 10 mM MgCl2, 0.5 mg/ml BSA with 3% Kinase Stabilizer (Fremont Biosolutions, Catalog #STB-K02). After 1 h, the reaction mixture from above was diluted 10 fold in assay buffer to make 5 nM BTK: 1 nM Eu-Streptavidin complex (donor fluorophore). 18 μl of a mixture of 0.11 nM BTK-Eu and 0.11 nM Kinase Tracer 178 (Invitrogen, Catalog #PV5593,) with BTK-Eu alone as no negative control, was then dispensed into 384-well flat bottom plates (Greiner, 784076). Compounds to be tested in assay were prepared as 10× concentrations and serial dilution in half-log increments was performed in DMSO so as to generate 10 point curves. To initiate the FRET reaction, compounds prepared as 10× stock in DMSO was added to the plates and the plates were incubated 18-24 h at 14° C.
After the incubation the plates were read on a BMG Pherastar Fluorescent plate reader (or equivalent) and used to measure the emission energy from the europium donor fluorophore (620 nm emission) and the FRET (665 nm emission). The negative control well values were averaged to obtain the mean minimum. The positive “no inhibitor” control wells were averaged to obtain the mean maximum. Percent of maximal FRET was calculated using following equation: % max FRET=100×[(FSR cmpd−FSR mean min)/(FSR mean max−FSR mean min)]
where FSR=FRET Signal ratio. % Max FRET curves were plotted in Activity Base (Excel) and the IC50(%), hill slope, z′ and % CV were determined. The mean IC50 and standard deviation will be derived from duplicate curves (singlet inhibition curves from two independent dilutions) using Microsoft Excel.
Representative compound data for this assay are listed below in Table II.
Background: Time-resolved FRET reads energy transfer from a long-lived donor to a nearby acceptor.
Take `COc1cc(Oc2cccc(F)c2F)ccc1-n1ncc(C(=O)c2cc3cc(C(=O)N4CCOCC4)ccc3[nH]2)c1N` [Example I-28, {5-Amino-1-[4-(2,3-difluoro-phenoxy)-2-methoxy-phenyl]-1H-pyrazol-4-yl}-[5-(morpholine-4-carbonyl)-1H-indol-2-yl]-methanone]: the negative-log IC50 (pIC50) – broadly, −log10 of the IC50, conventionally taken in molar units – is 8.16.

In turn, `Nc1c(C(=O)c2cc3cc(C(=O)N4CCOCC4)ccc3[nH]2)cnn1-c1ccc(Oc2cccc(F)c2F)cc1O` [Example I-29, {5-Amino-1-[4-(2,3-difluoro-phenoxy)-2-hydroxy-phenyl]-1H-pyrazol-4-yl}-[5-(morpholine-4-carbonyl)-1H-indol-2-yl]-methanone] showed a negative logarithm of the IC50 (pIC50) of 8.37.

`N#Cc1cccc(Oc2ccc(-n3ncc(C(=O)c4cc5cc(C(=O)N6CCOCC6)ccc5[nH]4)c3N)c(Cl)c2)c1` [Example I-30, 3-(4-{5-Amino-4-[5-(morpholine-4-carbonyl)-1H-indole-2-carbonyl]-pyrazol-1-yl}-3-chloro-phenoxy)-benzonitrile] gave a pIC50 of 8.21. Turning to `COC(=O)c1ccc2[nH]c(C(=O)c3cnn(-c4ccc(Oc5cccc(C#N)c5)cc4C)c3N)cc2c1` [Example I-31, 2-{5-Amino-1-[4-(3-cyano-phenoxy)-2-methyl-phenyl]-1H-pyrazole-4-carbonyl}-H-indole-5-carboxylic acid methyl ester], the pIC50 was 7.54. Take `Cc1cc(Oc2cccc(C#N)c2)ccc1-n1ncc(C(=O)c2cc3cc(C(=O)O)ccc3[nH]2)c1N` [Example I-32, 2-{5-Amino-1-[4-(3-cyano-phenoxy)-2-methyl-phenyl]-1H-pyrazole-4-carbonyl}-H-indole-5-carboxylic acid]: the pIC50 is 7.66. As to `N#Cc1cccc(Oc2ccc(-n3ncc(C(=O)c4cc5cc(Br)ccc5[nH]4)c3N)c(Cl)c2)c1` [Example I-33, 3-{4-[5-Amino-4-(5-bromo-1H-indole-2-carbonyl)-pyrazol-1-yl]-3-chloro-phenoxy}-benzonitrile], the pIC50 is 6.37.

The molecule `N#Cc1cccc(Oc2ccc(-n3ncc(C(=O)c4cc5cc(C(=O)O)ccc5[nH]4)c3N)c(Cl)c2)c1` [Example I-34, 2-{5-Amino-1-[2-chloro-4-(3-cyano-phenoxy)-phenyl]-1H-pyrazole-4-carbonyl}-1H-indole-5-carboxylic acid] gave a pIC50 of 7.60.

`COCCNC(=O)c1ccc2[nH]c(C(=O)c3cnn(-c4ccc(Oc5cccc(F)c5F)cc4C)c3N)cc2c1` [Example I-35, 2-{5-Amino-1-[4-(2,3-difluoro-phenoxy)-2-methyl-phenyl]-1H-pyrazole-4-carbonyl}-1H-indole-5-carboxylic acid (2-methoxy-ethyl)-amide] showed a pIC50 of 8.74. This pIC50 lies 1.14 log units higher than the previous one.

Turning to `Cc1cc(Oc2cccc(C#N)c2)ccc1-n1ncc(C(=O)c2cc3cc(C(=O)NCCN)ccc3[nH]2)c1N` [Example I-36, 2-{5-Amino-1-[4-(3-cyano-phenoxy)-2-methyl-phenyl]-1H-pyrazole-4-carbonyl}-H-indole-5-carboxylic acid (2-amino-ethyl)-amide], the negative logarithm of the IC50 (pIC50) is 8.30. Take `NC(=O)c1cccc(Oc2ccc(-n3ncc(C(=O)c4cc5cc(C(=O)N6CCOCC6)ccc5[nH]4)c3N)c(Cl)c2)c1` [Example I-37, 3-(4-{5-Amino-4-[5-(morpholine-4-carbonyl)-1H-indole-2-carbonyl]-pyrazol-1-yl}-3-chloro-phenoxy)-benzamide]: the negative logarithm of the IC50 (pIC50) was 7.30. `COC(=O)c1ccc2[nH]c(C(=O)c3cnn(-c4ccc(Oc5cccc(C#N)c5)cc4C)c3N)nc2c1` [Example I-38, 2-{5-Amino-1-[4-(3-cyano-phenoxy)-2-methyl-phenyl]-1H-pyrazole-4-carbonyl}-1H-benzoimidazole-5-carboxylic acid methyl ester] gave a pIC50 of 6.82. Then `Cc1cc(Oc2cccc(C#N)c2)ccc1-n1ncc(C(=O)c2nc3cc(C(=O)N4CCOCC4)ccc3[nH]2)c1N` [Example I-39, 3-(4-{5-Amino-4-[5-(morpholine-4-carbonyl)-1H-benzoimidazole-2-carbonyl]-pyrazol-1-yl}-3-methyl-phenoxy)-benzonitrile], with 7.62; and `COCCNC(=O)c1ccc2[nH]c(C(=O)c3cnn(-c4ccc(Oc5cccc(C#N)c5)cc4C)c3N)nc2c1` [Example I-40, 2-{5-Amino-1-[4-(3-cyano-phenoxy)-2-methyl-phenyl]-1H-pyrazole-4-carbonyl}-1H-benzoimidazole-5-carboxylic acid (2-methoxy-ethyl)-amide], with 7.64. `N#CNC(=O)c1ccc2[nH]c(C(=O)c3cnn(-c4ccc(Oc5cccc(C#N)c5)cc4Cl)c3N)cc2c1` [Example I-41, 2-{5-Amino-1-[2-chloro-4-(3-cyano-phenoxy)-phenyl]-1H-pyrazole-4-carbonyl}-N-cyano-1H-indole-5-carboxylic acid amide] gave a pIC50 of 7.28. The molecule `Cc1cc(Oc2cccc(C#N)c2)ccc1-n1ncc(C(=O)c2nc3cc(C(=O)O)ccc3[nH]2)c1N` [Example I-42, 2-{5-Amino-1-[4-(3-cyano-phenoxy)-2-methyl-phenyl]-1H-pyrazole-4-carbonyl}-1H-benzoimidazole-5-carboxylic acid] gave a pIC50 of 6.89. This pIC50 is 0.39 log units lower than that of the molecule before.

`Cc1cc(Oc2ccccc2C#N)ccc1-n1ncc(C(=O)c2cc3cc(C(=O)N4CCOCC4)ccc3[nH]2)c1N` [Example I-43, 2-(4-{5-Amino-4-[5-(morpholine-4-carbonyl)-1H-indole-2-carbonyl]-pyrazol-1-yl}-3-methyl-phenoxy)-benzonitrile]: the pIC50 is 8.89. Compared with the last molecule, the pIC50 is 2.00 log units higher. Then `CN1CCN(C(=O)c2ccc3[nH]c(C(=O)c4cnn(-c5ccc(Oc6cccc(C#N)c6)cc5Cl)c4N)cc3c2)CC1` [Example I-44, 3-(4-{5-Amino-4-[5-(4-methyl-piperazine-1-carbonyl)-1H-indole-2-carbonyl]-pyrazol-1-yl}-3-chloro-phenoxy)-benzonitrile hydrochloride salt], with 8.10; and `N#Cc1cccc(Oc2ccc(-n3ncc(C(=O)c4cc5cc(C(=O)NS(=O)(=O)C6CC6)ccc5[nH]4)c3N)c(Cl)c2)c1` [Example I-45, Cyclopropanesulfonic acid (2-{5-amino-1-[2-chloro-4-(3-cyano-phenoxy)-phenyl]-1H-pyrazole-4-carbonyl}-1H-indole-5-carbonyl)-amide], with 8.77. In the case of `CN1CCN(C(=O)c2ccc3[nH]c(C(=O)c4cnn(-c5ccc(Oc6ccccc6C(=O)N(C)C)cc5Cl)c4N)cc3c2)CC1` [Example I-46, 2-(4-{5-Amino-4-[5-(4-methyl-piperazine-1-carbonyl)-1H-indole-2-carbonyl]-pyrazol-1-yl}-3-chloro-phenoxy)-N,N-dimethyl-benzamide], the pIC50 is 8.38. Compared with the last molecule, the pIC50 is 0.39 log units lower. For the molecule `CN1CCN(C(=O)c2ccc3[nH]c(C(=O)c4cnn(-c5ccc(Oc6cccc(C(=O)N(C)C)c6)cc5Cl)c4N)cc3c2)CC1` [Example I-47, 3-(4-{5-Amino-4-[5-(4-methyl-piperazine-1-carbonyl)-1H-indole-2-carbonyl]-pyrazol-1-yl}-3-chloro-phenoxy)-N,N-dimethyl-benzamide], the negative logarithm of the IC50 (pIC50) was 7.49. The molecule `N#Cc1cccc(Oc2ccc(-n3ncc(C(=O)c4cc5cc(C(=O)O)ccc5[nH]4)c3N)c(Cl)c2)c1F` [Example I-48, 2-{5-Amino-1-[2-chloro-4-(3-cyano-2-fluoro-phenoxy)-phenyl]-1H-pyrazole-4-carbonyl}-1H-indole-5-carboxylic acid] gave a pIC50 of 8.49. The molecule `CN(C)CCNC(=O)c1ccc2[nH]c(C(=O)c3cnn(-c4ccc(Oc5ccccc5C(=O)N(C)C)cc4Cl)c3N)cc2c1` [Example I-49, 2-{5-Amino-1-[2-chloro-4-(2-dimethylcarbamoyl-phenoxy)-phenyl]-1H-pyrazole-4-carbonyl}-1H-indole-5-carboxylic acid (2-dimethylamino-ethyl)-amide] gave a pIC50 of 8.85.

Turning to `CN(C)C(=O)c1ccccc1Oc1ccc(-n2ncc(C(=O)c3cc4cc(C(=O)N5CCC(N(C)C)C5)ccc4[nH]3)c2N)c(Cl)c1` (stereo not drawn) [Example I-50, 2-(4-{5-Amino-4-[5-(3-dimethylamino-pyrrolidine-1-carbonyl)-1H-indole-2-carbonyl]-pyrazol-1yl}-3-chloro-phenoxy)-N,N-dimethyl-benzamide], the pIC50 was 8.60. `CN(C)C(=O)c1ccccc1Oc1ccc(-n2ncc(C(=O)c3cc4cc(C(=O)N5CCNCC5)ccc4[nH]3)c2N)c(Cl)c1` [Example I-51, 2-(4-{5-Amino-4-[5-(piperazine-1-carbonyl)-1H-indole-2-carbonyl]-pyrazol-1-yl}-3-chloro-phenoxy)-N,N-dimethyl-benzamide acetic acid salt] had a pIC50 of 8.96.
